The target in this assay is T1, IRAK4 (Homo sapiens, UniProt Q9NWZ3).
T1 construct: Degradation of IRAK4 in OCI-LY10 was quantitatively measured using Meso Scale Discovery technology; endogenous in cells; host or cells: OCI-LY10
T1 sequence (Q9NWZ3 1-460): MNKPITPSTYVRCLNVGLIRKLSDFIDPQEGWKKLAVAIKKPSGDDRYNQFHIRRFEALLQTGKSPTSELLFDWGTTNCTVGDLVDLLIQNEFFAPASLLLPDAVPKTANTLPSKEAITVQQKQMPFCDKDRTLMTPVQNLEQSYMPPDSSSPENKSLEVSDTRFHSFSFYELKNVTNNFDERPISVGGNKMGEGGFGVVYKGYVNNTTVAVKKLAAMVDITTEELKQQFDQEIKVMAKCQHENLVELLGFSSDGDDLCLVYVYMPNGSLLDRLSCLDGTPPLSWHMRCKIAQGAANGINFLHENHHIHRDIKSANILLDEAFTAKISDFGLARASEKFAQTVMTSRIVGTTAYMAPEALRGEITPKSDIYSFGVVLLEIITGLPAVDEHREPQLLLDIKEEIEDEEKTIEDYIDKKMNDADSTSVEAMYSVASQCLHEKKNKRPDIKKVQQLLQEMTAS
Put plainly: IRAK4 MSD Degradation in OCI-LY10. The assay is classed as cell-based. As to conditions: OCI-LY10 cells, MSD. As for the experimental part: Degradation of IRAK4 in OCI-LY10 was quantitatively measured using Meso Scale Discovery technology. […] Compounds were then added to the assay plates with a final top concentration of 1 to 10 μM in a 1:3 dilution series with total of 8 doses. The assay plates were then incubated for 4 to 24 hours at 37° C. under 5% CO2. […] To prepare MSD assay plates (Meso Scale Discovery Catalog number L15XA-3), the plates were coated with 2 μg/mL capture antibody (mouse Anti-IRAK4 antibody [2H9], ab119942) in PBS, at 40 μL/well. […] Cell lysates were then added to MSD assay plates and the plates were incubated at room temperature for 1 hour. The plates were then washed 3 times with 150 μL/well TBST buffer and 25 μL/well primary detection antibody (rabbit Anti-IRAK4 antibody [Y279], from Abcam. Catalog number ab32511, 1 μg/mL). The assay plates were then incubated at room temperature for 1 hour, washed 3 times with 150 μL/well TBST buffer and 25 μL/well secondary detection antibody, SULFO-TAG anti-rabbit antibody were added (anti-rabbit antibody from Meso Scale Discovery, Catalog number R32AB-1, 1 μg/mL). The assay plates were then incubated at room temperature for 1 hour, washed 3 times with 150 μL/well TBST buffer, and 150 μL/well MSD reading buffer (Meso Scale Discovery catalog number R92TC-2) was added. The plates were then analyzed by a MSD reader (Meso Scale Discovery, Model Quick Plex SQ 120). The data was then analyzed by software Prism 7.0 from GraphPad and the dose-depended IRAK4 degradation were fit using a three-parameter logistic equation to calculate DC50.
The letter codes for IRAK4 DC50 include: A (<0.01 μM); B (0.01 to <0.1 μM); C (0.1 to 0.2 μM); and D (>0.2 μM or not tested).

The mark [1] stands for this setting: 4 hrs incubation, read-out: IRAK4 degradation in OCI-LY10 at 4 hrs: DC50.
Setting [2] is: 24 hrs incubation, read-out: IRAK4 degradation in OCI-LY10 at 24 hrs: DC50.

Read-outs that look alike come from different tables or passages of the source.

In the case of `Cn1c(=O)n(C2CCC(=O)NC2=O)c2cccc(C#CCC3CCN(C[C@H]4CC[C@H](n5cc(NC(=O)c6cnn7ccc(N8C[C@H]9CC8CO9)nc67)c(C(F)F)n5)CC4)CC3)c21` (stereo partly drawn) [I-15], the DC50 runs as follows: under setting [1], greater than 200 nM; under setting [2], greater than 200 nM.

With `Cn1c(=O)n(C2CCC(=O)NC2=O)c2cccc(C#CCCOC3CCN(C[C@H]4CC[C@H](n5cc(NC(=O)c6cnn7ccc(N8C[C@H]9C[C@@H]8CO9)nc67)c(C(F)F)n5)CC4)CC3)c21` (stereo partly drawn) [I-16], the DC50 was less than 10 nM under setting [1] and greater than 200 nM under setting [2].

As for `Cn1c(=O)n(C2CCC(=O)NC2=O)c2cccc(C#CC3CCCN(C[C@H]4CC[C@H](n5cc(NC(=O)c6cnn7ccc(N8C[C@H]9C[C@@H]8CO9)nc67)c(C(F)F)n5)CC4)C3)c21` (stereo partly drawn) [I-17], the DC50 was 10 to 100 nM under setting [1] and greater than 200 nM under setting [2].

On to `Cn1c(=O)n(C2CCC(=O)NC2=O)c2cccc(C#CCOC3CCN(C[C@H]4CC[C@H](n5cc(NC(=O)c6cnn7ccc(N8C[C@H]9C[C@@H]8CO9)nc67)c(C(F)F)n5)CC4)CC3(F)F)c21` (stereo partly drawn) [I-18], for which the DC50 by setting is: under setting [1], 10 to 100 nM; under setting [2], greater than 200 nM.

As to `Cn1c(=O)n(C2CCC(=O)NC2=O)c2cccc(C#CCOC3CC4CC3CN4C[C@H]3CC[C@H](n4cc(NC(=O)c5cnn6ccc(N7C[C@H]8C[C@@H]7CO8)nc56)c(C(F)F)n4)CC3)c21` (stereo partly drawn) [I-19], the DC50 by setting is: under setting [1], 100 to 200 nM; under setting [2], greater than 200 nM.

In the case of `Cn1c(=O)n(C2CCC(=O)NC2=O)c2cccc(C#CCOC3CN(C[C@H]4CC[C@H](n5cc(NC(=O)c6cnn7ccc(N8C[C@H]9C[C@@H]8CO9)nc67)c(C(F)F)n5)CC4)C3)c21` (stereo partly drawn) [I-20], the DC50 is, setting by setting: under setting [1], less than 10 nM; under setting [2], greater than 200 nM.

Regarding `Cn1c(=O)n(C2CCC(=O)NC2=O)c2cccc(C#CCO[C@H]3CCN(C[C@H]4CC[C@H](n5cc(NC(=O)c6cnn7ccc(N8C[C@H]9C[C@@H]8CO9)nc67)c(C(F)F)n5)CC4)C3)c21` (stereo partly drawn) [I-21], the DC50 reads like this: under setting [1], less than 10 nM; under setting [2], greater than 200 nM.

Consider `Cn1c(=O)n(C2CCC(=O)NC2=O)c2cccc(C#CCO[C@@H]3CCN(C[C@H]4CC[C@H](n5cc(NC(=O)c6cnn7ccc(N8C[C@H]9C[C@@H]8CO9)nc67)c(C(F)F)n5)CC4)C[C@@H]3F)c21` (stereo partly drawn) [I-22], for which the DC50 is, setting by setting: under setting [1], 10 to 100 nM; under setting [2], greater than 200 nM.

For `Cn1c(=O)n(C2CCC(=O)NC2=O)c2cccc(C#CCO[C@H]3CCN(C[C@H]4CC[C@H](n5cc(NC(=O)c6cnn7ccc(N8C[C@H]9C[C@@H]8CO9)nc67)c(C(F)F)n5)CC4)C[C@@H]3F)c21` (stereo partly drawn) [I-23], the DC50 by setting is: under setting [1], 10 to 100 nM; under setting [2], greater than 200 nM.

Take `Cn1c(=O)n(C2CCC(=O)NC2=O)c2cccc(C#CCO[C@@H]3CCN(C[C@H]4CC[C@H](n5cc(NC(=O)c6cnn7ccc(N8C[C@H]9C[C@@H]8CO9)nc67)c(C(F)F)n5)CC4)C3)c21` (stereo partly drawn) [I-24]: the DC50 was 10 to 100 nM under setting [1] and greater than 200 nM under setting [2].

On to `C[C@H]1CN(C[C@H]2CC[C@H](n3cc(NC(=O)c4cnn5ccc(N6C[C@H]7C[C@@H]6CO7)nc45)c(C(F)F)n3)CC2)CC[C@@H]1OCC#Cc1cccc2c1n(C)c(=O)n2C1CCC(=O)NC1=O` (stereo partly drawn) [I-25], for which the DC50 is 10 to 100 nM under setting [1] and less than 10 nM under setting [2].

As for `C[C@H]1CN(C[C@H]2CC[C@H](n3cc(NC(=O)c4cnn5ccc(N6C[C@H]7C[C@@H]6CO7)nc45)c(C(F)F)n3)CC2)CC[C@H]1OCC#Cc1cccc2c1n(C)c(=O)n2C1CCC(=O)NC1=O` (stereo partly drawn) [I-26], the DC50 is 10 to 100 nM under setting [1] and greater than 200 nM under setting [2].

As for `Cn1c(=O)n(C2CCC(=O)NC2=O)c2cccc(C#CC3CN(C[C@H]4CC[C@H](n5cc(NC(=O)c6cnn7ccc(N8C[C@H]9C[C@@H]8CO9)nc67)c(C(F)F)n5)CC4)CCO3)c21` (stereo partly drawn) [I-27], the DC50 is, setting by setting: under setting [1], 10 to 100 nM; under setting [2], greater than 200 nM.

Take `Cn1c(=O)n(C2CCC(=O)NC2=O)c2cccc(C#CCOC3CCN(C[C@H]4C[C@H](n5cc(NC(=O)c6cnn7ccc(N8C[C@H]9C[C@@H]8CO9)nc67)c(C(F)F)n5)C4)CC3)c21` (stereo partly drawn) [I-28]: the DC50 by setting is: under setting [1], less than 10 nM; under setting [2], greater than 200 nM.

In the case of `C[C@H]1C[C@@H](OCC#Cc2cccc3c2n(C)c(=O)n3C2CCC(=O)NC2=O)CCN1C[C@H]1CC[C@H](n2cc(NC(=O)c3cnn4ccc(N5C[C@H]6C[C@@H]5CO6)nc34)c(C(F)F)n2)CC1` (stereo partly drawn) [I-29], the DC50 under setting [1] was less than 10 nM and the DC50 under setting [2] is greater than 200 nM.

As for `Cn1c(=O)n(C2CCC(=O)NC2=O)c2cccc(C#CCOC3C4CC3CN(C[C@H]3CC[C@H](n5cc(NC(=O)c6cnn7ccc(N8C[C@H]9C[C@@H]8CO9)nc67)c(C(F)F)n5)CC3)C4)c21` (stereo partly drawn) [I-30], the DC50 reads like this: under setting [1], 10 to 100 nM; under setting [2], greater than 200 nM.

For the compound `Cn1c(=O)n(C2CCC(=O)NC2=O)c2cccc(C#CCN3CCN(C[C@H]4CC[C@H](n5cc(NC(=O)c6cnn7ccc(N8C[C@H]9C[C@@H]8CO9)nc67)c(C(F)F)n5)CC4)CC3)c21` (stereo partly drawn) [I-31, N-[3-(difluoromethyl)-1-[4-[[4-[3-[1-(2,6-dioxo-3-piperidyl)-3-methyl-2-oxo-benzimidazol-4-yl]prop-2-ynyl]piperazin-1-yl]methyl]cyclohexyl]pyrazol-4-yl]-5-[(1R,4R)-2-oxa-5-azabicyclo[2.2.1]heptan-5-yl]pyrazolo[1,5-a]pyrimidine-3-carboxamide], the DC50 runs as follows: under setting [1], less than 10 nM; under setting [2], greater than 200 nM.

Take `C[C@@H]1C[C@@H](OCC#Cc2cccc3c2n(C)c(=O)n3C2CCC(=O)NC2=O)CCN1C[C@H]1CC[C@H](n2cc(NC(=O)c3cnn4ccc(N5C[C@H]6C[C@@H]5CO6)nc34)c(C(F)F)n2)CC1` (stereo partly drawn) [I-33]: the DC50 is less than 10 nM under setting [1] and greater than 200 nM under setting [2].

As for `Cn1c(=O)n(C2CCC(=O)NC2=O)c2cccc(C#CCO[C@@H]3CCN(C[C@H]4CC[C@H](n5cc(NC(=O)c6cnn7ccc(N8C[C@H]9C[C@@H]8CO9)nc67)c(C(F)F)n5)CC4)C[C@@H]3F)c21` (stereo partly drawn) [I-35], the DC50 was 10 to 100 nM under setting [1] and greater than 200 nM under setting [2].

Turning to `Cn1c(=O)n(C2CCC(=O)NC2=O)c2cccc(C#CCO[C@H]3CCN(C[C@H]4CC[C@H](n5cc(NC(=O)c6cnn7ccc(N8C[C@H]9C[C@@H]8CO9)nc67)c(C(F)F)n5)CC4)C[C@H]3F)c21` (stereo partly drawn) [I-36], the DC50 under setting [1] was 10 to 100 nM and the DC50 under setting [2] was greater than 200 nM.

Regarding `C[C@H]1CN(C[C@H]2CC[C@H](n3cc(NC(=O)c4cnn5ccc(N6C[C@H]7C[C@@H]6CO7)nc45)c(C(F)F)n3)CC2)CC[C@@H]1OCC#Cc1cccc2c1n(C)c(=O)n2C1CCC(=O)NC1=O` (stereo partly drawn) [I-37], the DC50 reads like this: under setting [1], less than 10 nM; under setting [2], less than 10 nM.

As to `COc1ccc2c(c1C#CCN1CCN(C[C@H]3CC[C@H](n4cc(NC(=O)c5cnn6ccc(N7C[C@H]8C[C@@H]7CO8)nc56)c(C(F)F)n4)CC3)CC1)n(C)c(=O)n2C1CCC(=O)NC1=O` (stereo partly drawn) [I-39], the DC50 was less than 10 nM under setting [1] and greater than 200 nM under setting [2].

`Cn1c(=O)n(C2CCC(=O)NC2=O)c2cccc(C#CC3CCN(C[C@H]4CC[C@H](n5cc(NC(=O)c6cnn7ccc(N8C[C@H]9C[C@@H]8CO9)nc67)c(C(F)F)n5)CC4)CC3)c21` (stereo partly drawn) [I-40]: the DC50 is less than 10 nM under setting [1] and greater than 200 nM under setting [2].

For the compound `O=C1CCN(c2cncc3c(C#CCO[C@@H]4CCN(C[C@H]5CC[C@H](n6cc(NC(=O)c7cnn8ccc(N9C[C@H]%10C[C@@H]9CO%10)nc78)c(C(F)F)n6)CC5)C[C@@H]4F)cccc23)C(=O)N1` [I-41], the DC50 was less than 10 nM under setting [1] and greater than 200 nM under setting [2].

Broadly, the DC50 is the midpoint of the concentration-degradation curve.

(Values after patent US12091411B2, “IRAK degraders and uses thereof” (Kymera Therapeutics, Inc., priority 2022, dated 2024).)
